These results are taken from PubChem BioAssay (NCI).

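Tested at 5 concentrations; 48 h exposure; 96-well plates; endpoints linearly interpolated, else capped at highest concentration. GI50: concentration for 50% inhibition of growth. TGI denotes the concentration required for complete inhibition of growth.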

Common to all, as to experiment: NCI anticancer screen, dose series, 48 h
In test [1] the test system is HT29 colon.
The subject of test [2] is A549 NSCLC.
Test [3] relates to HOP-62 NSCLC.
For test [4], the system named is SN12C renal.
The subject of test [5] is SW-620 colon.
For test [6], the system named is MALME-3M melanoma.
Test [7] relates to MOLT-4 leukemia.
Test [8] relates to OVCAR-3 ovarian.
Test [9] deals with M14 melanoma.
Test [10] relates to SK-MEL-5 melanoma.

In the case of `Nc1nc(Cl)cc(Oc2ccc(Cl)cc2)n1`, the TGI in [1], in [2], in test [3], in test [4], in test [5] and in test [6] was more than 100 µM in each case. For the same compound, the TGI in [7], in test [8], in test [9] and in test [10] was more than 100 µM throughout.

Consider `CCCN1CCN(c2ccc3nc(-c4ccc5nc(-c6ccc(OCC)cc6)[nH]c5c4)[nH]c3c2)CC1`, for which the GI50 in [4] was more than 100 µM; in [7], 1.06 µM; in test [8] it was 1.99 µM; in test [10], 1.04 µM. For the same compound, the TGI in test [4] is more than 100 µM; in test [7], 3.42 µM; in test [8] it was 3.59 µM; in test [10], 2.24 µM.

For `N#Cc1ccccc1C#C/C=C\C#Cc1ccccn1`, the TGI in test [1] turned out to be 41.6 µM; in [2], 56.5 µM; in test [3], 41.4 µM; in test [4], 47.8 µM; in test [5], 31.9 µM; in test [6], 39.6 µM. Besides, the values for the TGI in [8], in [9] and in test [10] were 19.2 µM, 28.8 µM and 12.9 µM, respectively.

On to `O=[N+]([O-])c1cc(-c2ccc([As](=O)(O)O)cc2)ccc1[As](=O)(O)O`, for which the TGI in test [1], in [2], in test [3], in [4], in test [5] and in [6] was more than 100 µM throughout. Also, the TGI in test [7], in test [8], in [9] and in test [10] was more than 100 µM each time.

Turning to `CN1CN(c2ccccc2)C2(CCN(C(=O)OC(C)(C)C)CC2)C1=O`, the TGI in [1], in test [2], in test [3], in [4], in test [5] and in test [6] was more than 100 µM each time. Also, the TGI in [7], in test [8], in test [9] and in test [10] was more than 100 µM in each case.

On to `COc1cc(/C=[N+](\[O-])c2ccccc2Cl)ccc1OC(=S)S`, for which the TGI in test [1], in [2], in test [3], in test [4], in test [5] and in test [6] was more than 100 µM each time. The TGI in test [7] is more than 100 µM; in test [8], more than 100 µM; in test [9] it was more than 100 µM; in [10], 38.2 µM.

With `O=C(N/N=C/c1ccc(O)cc1)NNCCO`, the TGI in test [1], in [2], in test [3], in [4], in test [5] and in test [6] was more than 100 µM throughout. Moreover, the TGI in test [7], in test [8], in test [9] and in [10] was more than 100 µM in each case.

In the case of `Cc1ccnc2[nH]c(-c3ccc(Cl)cc3)cc(=O)c12`, the TGI in test [1] was more than 100 µM; in test [2] it was more than 100 µM; in test [3] it was more than 93.5 µM; in [4], more than 100 µM; in test [5], more than 100 µM; in test [6], more than 100 µM. Moreover, the TGI is more than 100 µM in test [7], 99.1 µM in test [8], more than 100 µM in test [9] and more than 100 µM in [10].

`Nc1nc(Cl)cc(OCC2(CO)CCCCC2)n1`: the TGI in test [1], in test [2], in test [3], in [4], in [5] and in test [6] was more than 100 µM each time. Besides, the TGI in test [7], in test [8] and in [10] was more than 100 µM in each case.

In the case of `C#CCN(Cc1ccc2nc(-c3ccccc3)c(Cl)nc2c1)c1ccc(Cl)c(Cl)c1`, the TGI in test [1], in test [2], in test [3], in test [4], in test [5] and in [6] was more than 100 µM in each case. In addition, the TGI in test [7], in test [8], in [9] and in test [10] was more than 100 µM throughout.

In the case of `O=C1/C(=C/Cc2ccco2)N=C(c2ccccc2)N1c1nc2ccc(Sc3ccccc3)cc2[nH]1`, the TGI was 73.6 µM in test [1]; more than 100 µM in test [2]; more than 100 µM in test [3]; 34.9 µM in [4]; more than 100 µM in test [5]; 92.9 µM in test [7]. For the same compound, the TGI in test [8] came to 84.8 µM; in test [9], 42.5 µM; in [10], 31.8 µM.

In the case of `CC(=O)OC1CC[C@@]2(C)C(=CC[C@@H]3[C@@H]2CC[C@]2(C)Nc4c(cnn4-c4ccc(F)cc4)C[C@@H]32)C1` (stereo partly drawn), the TGI is more than 100 µM in test [1]; more than 100 µM in test [2]; 17.8 µM in [3]; more than 100 µM in [4]; more than 100 µM in [5]; more than 77.6 µM in [6]. Besides, the TGI in [8] was more than 100 µM; in [9] it was more than 100 µM; in test [10], more than 93.9 µM.

As for `C[C@]12CC[C@@H]3c4cc(C=O)c(OCc5ccccc5)cc4CC[C@H]3[C@@H]1CCC2OCc1ccccc1` (stereo partly drawn), the TGI in [1], in test [2], in test [3], in test [4], in test [5] and in test [7] was more than 100 µM throughout. Also, the TGI in test [8], in test [9] and in test [10] was more than 100 µM each time.

As for `CCN1CC2(CO)CCC(OC)C34C5CC6C(OC)CC(O)(C5C6OC)C(O)(C(OC)C23)C14` (stereo not drawn), the TGI in test [1], in test [2], in test [3], in test [4], in test [5] and in test [6] was more than 375 µM in each case. For the same compound, the TGI was more than 375 µM in test [7], more than 174 µM in test [8] and more than 211 µM in test [10].

Regarding `COc1ccc(CNCCN2C(=O)c3ccc4c5c(ccc(c35)C2=O)C(=O)N(CCNCc2ccc(OC)c(OC)c2OC)C4=O)c(OC)c1OC`, the GI50 in [1] is 0.164 µM; in test [3], 0.248 µM; in [4] it was 0.0942 µM; in [6], 0.112 µM; in [7], 0.151 µM; in test [8], 0.121 µM. In test [10], the GI50 was 0.48 µM. Moreover, the TGI in test [1] amounted to 0.589 µM; in test [3], 1.08 µM; in test [4], 0.207 µM; in test [6] it was 0.297 µM; in test [7], 0.613 µM; in [8] it was 0.353 µM. The compound further showed a TGI in [10] of 1.09 µM.

Consider `CN(C)CC(O)CNC(=O)Nc1ccccc1` (stereo not drawn), for which the TGI in test [1], in test [2], in test [3], in [4], in test [5] and in test [6] was more than 100 µM throughout. In addition, the TGI in test [8], in test [9] and in test [10] was more than 100 µM in each case.

Regarding `C#CCN1C(=O)CN2C(Cl)(Cl)C2(c2ccccc2)c2cc(Cl)ccc21` (stereo not drawn), the TGI in [1] is more than 100 µM; in test [3], more than 100 µM; in test [4], more than 100 µM; in test [5], more than 100 µM; in [6] it was more than 100 µM; in test [7] it was 57.4 µM. For the same compound, the TGI in test [8], in [9] and in [10] was more than 100 µM throughout.

For `CNC(=O)/C(C#N)=C(\N)N1CCCC1`, the TGI in test [1], in test [2], in test [3], in test [4], in [5] and in test [6] was more than 100 µM throughout. Moreover, the TGI in test [7], in test [8] and in test [10] was more than 100 µM each time.

Consider `CCOC(=O)C1=C(C)NC(c2ccccc2)=C(C(=O)OCc2ccccc2)C1C#Cc1ccccc1` (stereo not drawn), for which the TGI in [3], in test [4], in [5], in test [6], in test [7] and in [8] was more than 100 µM each time. The TGI in [9] and in test [10] was more than 100 µM throughout.

As to `O=C(Cn1cc(I)c(C(=O)NCC(O)CO)n1)NCC(O)CO` (stereo not drawn), the TGI in test [1], in [2], in [3], in test [4], in test [5] and in test [6] was more than 100 µM in each case. Also, the TGI in test [7], in test [8] and in test [9] was more than 100 µM in each case.

With `COc1ccc2nc3c(nc2c1)C(C)(C)C=C3c1ccc(Br)cc1`, the TGI in [1] is more than 100 µM; in test [2], more than 100 µM; in [3], more than 100 µM; in [4], more than 100 µM; in test [5], 21.9 µM; in [6], more than 100 µM. The TGI in test [7], in test [9] and in test [10] was more than 100 µM each time.

For the compound `CCCC(CCC(=O)O)(CCC(=O)O)[N+](=O)[O-]`, the TGI in test [1], in test [2], in test [4], in [5], in test [6] and in [7] was more than 100 µM throughout. Also, the TGI in test [9] and in test [10] was more than 100 µM each time.

Regarding `Clc1cccc(C=NC23CC4CC(CC(C4)C2)C3)c1Cl`, the TGI in test [1], in [2], in test [3], in [4], in test [5] and in test [6] was more than 10 µM each time. Besides, the TGI in test [8], in test [9] and in test [10] was more than 10 µM each time.

In the case of `Cc1ccc2c(=O)cc(-c3ccccc3)[nH]c2n1`, the TGI in test [1] was 0.194 µM; in test [2] it was more than 100 µM; in test [3] it was more than 100 µM; in test [4], more than 36 µM; in test [5] it was more than 100 µM; in test [6], more than 100 µM. For the same compound, the TGI in [7] was more than 28.3 µM; in [8], 0.308 µM; in [10], 18.7 µM.

In the case of `COc1ccccc1-c1nc[nH]c1-c1ccccc1OC`, the TGI in test [2] was more than 100 µM; in [3], more than 100 µM; in test [4] it was more than 100 µM; in test [5] it was more than 100 µM; in test [6] it was 52.9 µM; in test [7] it was more than 100 µM. The TGI in [8] was more than 100 µM; in test [9] it was 78.3 µM.

As to `OC[C@@H](O)[C@H](O)[C@H](O)[C@@H](O)C1SCCCS1`, the TGI in [1], in [2], in [3], in [4], in [5] and in test [7] was more than 100 µM throughout. The TGI in test [8], in test [9] and in test [10] was more than 100 µM in each case.

Regarding `CCOC(=O)/C(C(N)=O)=C(/O)c1cnccn1`, the TGI in test [1], in test [2], in test [4], in [5], in test [6] and in test [7] was more than 100 µM throughout. The TGI in test [8], in test [9] and in test [10] was more than 100 µM throughout.

In the case of `CC(C)C(C=O)C(O)(C(F)(F)F)C(F)(F)F` (stereo not drawn), the TGI in test [1], in [2], in [5], in test [6], in [7] and in test [8] was more than 100 µM throughout. Also, the TGI in [9] and in test [10] was more than 100 µM throughout.

For `CCN(CC)CCNC(=O)C1COc2ccc(-c3cc(=O)c4ccccc4o3)cc2O1` (stereo not drawn), the TGI stood at 34.6 µM in test [1]; 49.8 µM in test [2]; 47 µM in test [3]; 55.1 µM in test [4]; 45.9 µM in test [5]; 30.3 µM in test [6]. In addition, the TGI came to 57.9 µM in test [7], 41.4 µM in test [8] and 35.9 µM in test [10].
